The text below walks through data of US10344026B2, “Compositions and methods of targeting mutant K-ras” (NANTBIO, INC., priority 2017, dated 2019).

Holding throughout (assay type): cell-based
One assay has as its system HCT116-G31D. Kind of assay: Viability assay (CellTiterBlue, 72 hr) HCT116. The conditions noted are these: Homo sapiens, HCT-116, GI50, CellTiterBlue, HCT116 K-Ras G13D, read-out: 72 hr Cell Viability HCT116 (G13D). The method in brief: (§1)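 1000 cells/well, 18 hr pre-incubation at 37 °C; compound added from DMSO stock, 0.5% DMSO final; 72 hr; CellTiterBlue 3 hr, fluorescence Ex550/Em590; GI50 normalized to DMSO = 100%, 100 uM tamoxifen = 0% viability.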
(In general: Alamar Blue is a resazurin reagent that responds to reducing activity.)

The subject of assay [1] is phospho-Akt in Panc1 (G12D). Kind of assay: In-Cell Western phospho-Akt, Panc1. To be noted: Homo sapiens, PANC-1, 1 h; Panc1, one hour treatment; read-out: In-Cell Western Panc1 (G12D) Akt (P). The method in brief:
(§2)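 3000 cells/well, 18 hr pre-incubation; 1 hr compound exposure, 0.5% DMSO final. Formaldehyde fix, Triton permeabilization, primary Ab overnight 4° C, secondary 2 hr. Fluorescence imaging; EC50.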

The next assay has as its system Panc1-G12D. Briefly: Viability assay (CellTiterBlue, 72 hr) Panc1. The conditions noted are these: Homo sapiens, PANC-1, GI50, CellTiterBlue, Panc1 K-Ras G12D, read-out: 72 hr Cell Viability Panc1 (G12D). The method in brief:
as §1

Another assay has as its target T1, K-Ras G12D (Homo sapiens, UniProt P01116, G12D).
T1 construct: expressed in transfected cells; host or cells: 293H cells
Briefly: G-LISA Ras activation, 293H cells transfected with G12D mutant. To be noted: compound 1 hour. The method in brief: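 Active Ras was quantified by G-LISA in lysates of 293H cells transiently expressing wild-type or mutant Ras. Compounds (3.125-25 μM) were applied for 1 hour; only wild-type transfected cells were stimulated with 100 ng/ml EGF for 2 minutes.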

Assay [2] relates to phospho-Akt in Panc10.05 (G12D). Briefly: In-Cell Western phospho-Akt, Panc10.05. The conditions noted are these: Homo sapiens, Panc1005, 1 h; Panc10.05, one hour treatment; read-out: In-Cell Western Panc10.05 (G12D) Akt (P). The method in brief:
as §2

Assay [3] relates to Ishikawa (K-Ras wild type cell line). Briefly: Viability assay (CellTiterBlue, 72 hr) Ishikawa. To be noted: Homo sapiens, GI50, CellTiterBlue, Ishikawa K-Ras wild-type. The method in brief: as §1
Assay [4] deals with HCC827 (K-Ras wild type cell line). Kind of assay: Viability assay (CellTiterBlue, 72 hr) HCC827. The conditions noted are these: Homo sapiens, GI50, CellTiterBlue, HCC827 K-Ras wild-type. The method in brief:
as §1

A further assay has as its target T2, wild type K-Ras (Homo sapiens, UniProt P01116).
T2 construct: expressed in transfected cells; host or cells: 293H cells
Briefly: G-LISA Ras activation, 293H cells transfected with Ras wild-type, EGF stimulated. To be noted: compound 1 hour, then 100 ng/ml EGF 2 minutes. As to the method:
293H cells were seeded in 6-wells at 0.6×10^6 cells per well and transfected next day with 5 μg of Ras wild-type, or G12C, G12D or G12V mutant DNA plasmid vector using transfection reagent Lipofectamine 3000. Next day cells were treated with 3.125-25 μM of Ras compounds for 1 hour. Wild-type transfected cells were subsequently treated with 100 ng/ml EGF for 2 minutes. Cells were washed once in ice-cold PBS, lysed in complete lysis buffer on ice, and processed by G-LISA according to Cytoskeleton protocol.

Assay [5] relates to phospho-ERK in Panc10.05 (G12D). Kind of assay: In-Cell Western phospho-ERK, Panc10.05. The conditions noted are these: Homo sapiens, Panc1005, 1 h; Panc10.05, one hour treatment; read-out: In-Cell Western Panc10.05 (G12D) Erk (P). The method in brief:
as §2

The subject of assay [6] is phospho-ERK in Panc1 (G12D). Kind of assay: In-Cell Western phospho-ERK, Panc1. The conditions noted are these: Homo sapiens, PANC-1, 1 h; Panc1, one hour treatment; read-out: In-Cell Western Panc1 (G12D) Erk (P). The method in brief:
as §2

Another assay has as its system Panc10.05-G12D. Kind of assay: Viability assay (CellTiterBlue, 72 hr) Panc10.05. To be noted: Homo sapiens, Panc1005, GI50, CellTiterBlue, Panc10.05 K-Ras G12D, read-out: 72 hr Cell Viability Panc10.05 (G12D). The method in brief: as §1
Assay [7] deals with phospho-ERK in HCC827 (Wild-type). Briefly: In-Cell Western phospho-ERK, HCC827. The conditions noted are these: Homo sapiens, 1 h; HCC827, one hour treatment; read-out: In-Cell Western HCC827 (Wild-type) Erk (P). As to the method:
(§3) In-cell phosphorylation assays for Erk and Akt were performed on several of the compounds and exemplary results are shown in Table 3 below using HCC827 and A375 cell lines for wild type K-Ras and Panc1 and Panc10.05 cell lines for G12D K-Ras mutants. Results are expressed in μM and corresponding structures are shown in FIGS. 2A-2G and Examples 1-152, above.
(§4) Cells are seeded in complete medium into black sided, clear-bottom 384-well microplates at 3000 cells/[…]/well. Plates are returned to 37° C. CO2 incubator for 18 hr. Drug is made as 200× in DMSO and diluted into medium to 10×. To each well is added 4 ul 10× test article or controls, and plates are returned to the incubator. Final assay DMSO concentration is 0.5%. After one hour, cells are fixed in formaldehyde, rinsed & permeabilized with triton X-100, and blocked with BSA/Goat serum blocking solution. Primary phospho-Akt and phospho-ERK antibodies are added and plates are incubated overnight at 4° C. Plates are rinsed with Tween-20 wash buffer and secondary antibody (Goat anti-rabbit, Thermofisher) is added. After 2 hours, plates are rinsed in Tween-20 wash buffer, and then PBS. Plates are imaged on the Celigo (Nexcelom) and cellular fluorescence is quantitated. Full inhibition of phospho-Akt is achieved with 1 uM BEZ235 (Sellekchem), while full inhibition of phospho-ERK is achieved with 1 uM MEK Inhibitor II Calbiochem). EC50 values are calculated using Graphpad Prism.

For assay [8], the system named is A375 (K-Ras wild type cell line). Briefly: Viability assay (CellTiterBlue, 72 hr) A375. To be noted: Homo sapiens, A-375, GI50, CellTiterBlue. As to the method:
Viability assays were performed on exemplary compounds and Table 2 below lists exemplary results for selected compounds tested on K-Ras wild type cell lines (Ishikawa, U87-MG, HCC827, and A375) and various K-Ras mutant cell lines (Panc1-G12D; Panc10.05-G12D; HCT116-G31D). Results are expressed in μM and corresponding structures are shown in FIGS. 2A-2G and Examples 1-152, above.
Cells are counted and seeded at 1000 cells/36 ul medium/well into 384-well microplates. Cells are returned to 37° C. CO2 incubator for 18 hr. Drug is made as 200× in DMSO and diluted into medium to 10×. To each well is added 4 ul 10× drug, and plates are returned to the incubator. Final assay DMSO concentration is 0.5%. After 72 hr, 8 ul CellTiterBlue (Promega) is added to each well. After 3 hr, fluorescence (Ex550/Em590) is determined on the Victor Plate Reader (Perkin Elmer). Assay range is determined by DMSO control (100% viability) and 100 uM tamoxifen (0% viability). GI50 values are calculated using Graphpad Prism.

Assay [9] has as its system phospho-Akt in A375 (Wild-type). Briefly: In-Cell Western phospho-Akt, A375. To be noted: Homo sapiens, A-375, 1 h; A375, one hour treatment; read-out: In-Cell Western A375 (Wild-type) Akt (P). As to the method: as §3, §4
In assay [10] the test system is U87-MG (K-Ras wild type cell line). Briefly: Viability assay (CellTiterBlue, 72 hr) U87-MG. To be noted: Homo sapiens, U-87 MG, GI50, CellTiterBlue, U87-MG K-Ras wild-type. The method in brief:
as §1

Assay [11] relates to phospho-ERK in A375 (Wild-type). Kind of assay: In-Cell Western phospho-ERK, A375. The conditions noted are these: Homo sapiens, A-375, 1 h; A375, one hour treatment; read-out: In-Cell Western A375 (Wild-type) Erk (P). As to the method: as §3, §4

T1 sequence (P01116 whole entry G12D): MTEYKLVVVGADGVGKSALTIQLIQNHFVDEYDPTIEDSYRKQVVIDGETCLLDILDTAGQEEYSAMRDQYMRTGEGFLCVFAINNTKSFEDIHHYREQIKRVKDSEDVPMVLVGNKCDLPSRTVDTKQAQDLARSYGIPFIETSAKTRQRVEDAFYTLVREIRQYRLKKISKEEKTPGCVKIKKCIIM
T2 sequence (P01116 whole entry): as the sequence (P01116 whole entry G12D) above, with D12G counted along it

On to `Cc1nn(C)cc1C(=O)Nc1nc(-c2ccc3c(c2)CCC(=O)N3)cs1` [Compound 21, 1,3-dimethyl-N-(4-(2-oxo-1,2,3,4-tetrahydroquinolin-6-yl)thiazol-2-yl)-1H-pyrazole-4-carboxamide], for which the IC50 with HCT116-G31D came out at 10 µM; with Panc1-G12D, 2 µM; on K-Ras G12D it was 3.8 µM; in assay [3], 5 µM; in [4], 6 µM; against wild type K-Ras, 17.1 µM. For the same compound, the IC50 with Panc10.05-G12D was 0.797 µM. Also, the EC50 in assay [1] is 12 µM; in [2] it was 8 µM; in assay [5] it was greater than 25 µM; in assay [6], greater than 25 µM.
For the compound `Cc1nc(C)c(C(=O)Nc2nc(-c3ccc4c(c3)CCC(=O)N4Cc3cccnc3C#N)cs2)o1` [Compound 94, N-(4-(1-((2-cyanopyridin-3-yl)methyl)-2-oxo-1,2,3,4-tetrahydroquinolin-6-yl)thiazol-2-yl)-2,4-dimethyloxazole-5-carboxamide], the EC50 in assay [7], in assay [1], in assay [9], in assay [2], in [5] and in assay [6] was greater than 25 µM throughout. Also, in [11], the EC50 was greater than 25 µM. For the same compound, the IC50 (in assay [8]; in the assay on HCT116-G31D; with Panc1-G12D; in assay [3]; in assay [10]; in [4]) was greater than 25 µM throughout. Moreover, the IC50 in the assay on Panc10.05-G12D is greater than 25 µM.
Turning to `Cc1nc(C)c(C(=O)Nc2nc(-c3ccc4c(c3)CCC(=O)N4CCCN(C)C)cs2)o1` [Compound 98, N-(4-(1-(3-(dimethylamino)propyl)-2-oxo-1,2,3,4-tetrahydroquinolin-6-yl)thiazol-2-yl)-2,4-dimethyloxazole-5-carboxamide], the EC50 in assay [7], in assay [1], in [9], in [2], in assay [5] and in assay [6] was greater than 25 µM in each case. For the same compound, the EC50 in [11] was greater than 25 µM. The IC50 was 9 µM in assay [8]; greater than 25 µM in the assay with HCT116-G31D; 13 µM with Panc1-G12D; 11 µM in assay [3]; greater than 25 µM in assay [10]; 5 µM in [4]. Moreover, the IC50 with Panc10.05-G12D is greater than 25 µM.
Consider `Cn1nc(-c2ccccc2)cc1C(=O)Nc1nc(-c2ccc3c(c2)CCC(=O)N3)cs1` [Compound 48, 1-methyl-N-(4-(2-oxo-1,2,3,4-tetrahydroquinolin-6-yl)thiazol-2-yl)-3-phenyl-1H-pyrazole-5-carboxamide], for which the EC50 in assay [7], in assay [1], in [9], in [2], in assay [5] and in assay [6] was greater than 25 µM in each case. The EC50 in assay [11] was greater than 25 µM. Also, the IC50 (in assay [8]; with HCT116-G31D; with Panc1-G12D; in assay [3]; in [10]; in assay [4]) was greater than 25 µM each time. For the same compound, in the assay on Panc10.05-G12D, the IC50 was greater than 25 µM.
As for `O=C1CCc2cc(-c3csc(NC(=O)c4ccnn4-c4ccccc4)n3)ccc2N1` [Compound 47, N-(4-(2-oxo-1,2,3,4-tetrahydroquinolin-6-yl)thiazol-2-yl)-1-phenyl-1H-pyrazole-5-carboxamide], the EC50 in assay [7], in assay [1], in assay [9], in [2], in assay [5] and in [6] was greater than 25 µM each time. For the same compound, the EC50 in assay [11] was greater than 25 µM. In addition, the IC50 (in assay [8]; in the assay with HCT116-G31D; in the assay on Panc1-G12D; in [3]; in assay [10]; in assay [4]) was greater than 25 µM each time. In the assay on Panc10.05-G12D, the IC50 was greater than 25 µM.
Consider `Cn1nccc1C(=O)Nc1nc(-c2ccc3c(c2)CCC(=O)N3)cs1` [Compound 51, 1-methyl-N-(4-(2-oxo-1,2,3,4-tetrahydroquinolin-6-yl)thiazol-2-yl)-1H-pyrazole-5-carboxamide], for which the EC50 in assay [7] was greater than 25 µM; in assay [1] it was greater than 25 µM; in assay [9] it was greater than 25 µM; in [5] it was 25 µM; in assay [6], greater than 25 µM; in assay [11], greater than 25 µM. For the same compound, the IC50 in assay [8] was greater than 25 µM; with HCT116-G31D it was greater than 25 µM; in the assay on Panc1-G12D, greater than 25 µM; against K-Ras G12D, 21.5 µM; in assay [3], greater than 25 µM; in [10] it was greater than 25 µM. In addition, the IC50 (in assay [4]; in the assay on Panc10.05-G12D) was greater than 25 µM in each case.
